Measured values taken from US20260001879A1, “COMPOUNDS AS MYT1 INHIBITORS” (WIGEN BIOMMEDICINE TECHNOLOGY (SHANGHAI) CO., LTD., priority 2022, published 2026).
pIC50: −log10 of the molar value. Blank lines part the entries; values can stand above or below the compound they belong to.

Key:
recombinant protein MYT1 = recombinant protein MYT1 (Homo sapiens (Human), UniProt Q99640); experiment: In vitro assay for inhibiting MYT1 kinase activity (ADP-GLO); format: biochemical; settings: 10 μM ATP, read-out: Inhibitory activity against recombinant protein MYT1 IC50
Protocol: Recombinant MYT1 protein and the compounds were pre-incubated at room temperature for 15 min, and 10 μM ATP was then added to start the reaction. The mixture was incubated at room temperature for another 60 min, and the ADP-GLO reagent from Promega was then added. The resulting mixture was incubated in the dark for 40 min, a detection solution was then added, and the mixture was incubated for another 45-60 min. The chemiluminescence was determined using ENVISION. The inhibition rate and IC50 were calculated compared to the DMSO group.

MIA PaCa-2 cells [1] = experiment: In vitro anti-proliferative activity in combination with gemcitabine against MIA PaCa-2 cells; format: cell-based
Protocol: (§1) MIA PaCa-2 cells were seeded on a 384-well plate at 3000 cells/well, and 20 nM gemcitabine was added. After overnight adherence culture, DMSO or the compounds serially diluted 1:5 from 1000 nM were added. The viability was assessed 72 h after dosing by measuring the intracellular ATP content. The inhibition percentage of viable cells by the compounds was calculated by comparing with the DMSO group, and the IC50 value was calculated.

MIA PaCa-2 cells [2] = experiment: In vitro anti-proliferative activity against MIA PaCa-2 cells (compound alone); format: cell-based; settings: intracellular ATP content
Protocol: as §1, with “cells/well.” for “cells/well, and 20 nM gemcitabine was added.”, “10 μM” for “1000 nM”

[3] = system: P-glycoprotein (P-gp, MDR1); experiment: in vitro; settings: dog; for Papp A→B / Papp B→A: 5 μM
Protocol: (§2) In vitro passive permeability or the ability to serve as a P-glycoprotein (P-gp) transport substrate was tested using MDCK cells (MDCK wild type) or MDCK cells stably transduced with MDRI (MDCK-MDRI), respectively. The permeability experiment was performed in duplicate in a transwell system at a single concentration (5 μM). The cells were incubated for […] Apical-to-basolateral (A to B, A-B) transport and basolateral-to-apical (B to A, B-A) transport of the corresponding compound were determined, and the permeation rate (apparent permeability) (Papp×10^−6 cm/sec) and efflux ratio (Papp (B−A)/Papp (A−B)) of the test compound were calculated.

[4] = In vitro permeability experiment, MDCK wild type cells; settings: dog
Protocol: as §2

[5] = read-out: Anti-proliferative activity against MIA PaCa-2 cells (20 nM gemcitabine) IC50, with 20 nM gemcitabine, 72 h, intracellular ATP content
[6] = Homo sapiens, MIA PaCa-2, 72 h, read-out: Anti-proliferative activity against MIA PaCa-2 cells (20 nM gemcitabine) IC50, with 20 nM gemcitabine, 72 h, intracellular ATP content

Sequence of recombinant protein MYT1 (Q99640 whole entry): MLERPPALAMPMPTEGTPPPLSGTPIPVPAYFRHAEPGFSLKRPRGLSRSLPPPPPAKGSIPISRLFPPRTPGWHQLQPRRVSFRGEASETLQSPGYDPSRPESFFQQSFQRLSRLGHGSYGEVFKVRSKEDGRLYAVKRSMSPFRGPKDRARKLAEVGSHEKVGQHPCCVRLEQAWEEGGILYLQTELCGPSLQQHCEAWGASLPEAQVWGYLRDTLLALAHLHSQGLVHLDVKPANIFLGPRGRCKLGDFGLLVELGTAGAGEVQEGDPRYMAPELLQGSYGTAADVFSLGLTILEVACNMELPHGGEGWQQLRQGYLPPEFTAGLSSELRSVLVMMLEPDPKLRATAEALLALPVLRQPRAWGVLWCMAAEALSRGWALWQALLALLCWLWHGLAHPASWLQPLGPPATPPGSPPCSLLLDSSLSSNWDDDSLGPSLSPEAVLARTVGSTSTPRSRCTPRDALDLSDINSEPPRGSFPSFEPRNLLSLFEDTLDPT

Compound: Cc1cc2c(C(N)=O)c(N)n(-c3c(C)c(O)cc4c3CCC4)c2nc1C [Compound 116]
- pIC50 (MIA PaCa-2 cells [1]; [6]): < 6.00

Compound: Cc1cc2c(C(N)=O)c(N)n(-c3c(C)cc4c(c3C)NCC4)c2nc1C [Compound 151]
- pIC50 (MIA PaCa-2 cells [1]; [5]): < 6.00

Compound: COCCc1ccc(OCC(O)CNC(C)C)cc1 (stereo not drawn) [Metoprolol, metoprolol]
- Papp A→B ([3]; MDCK-MDR1, Papp A-B Mean, MDCK-MDR1, A-B, mean): 37 ×10⁻⁶ cm/s
- Papp A→B ([3]; MDCK-MDR1, Papp A-B Sample - 01, MDCK-MDR1, A-B, replicate 01): 37.6 ×10⁻⁶ cm/s
- Papp A→B ([3]; MDCK-MDR1, Papp A-B Sample - 02, MDCK-MDR1, A-B, replicate 02): 36.3 ×10⁻⁶ cm/s
- Papp B→A ([3]; MDCK-MDR1, Papp B-A Mean, MDCK-MDR1, B-A, mean): 20.1 ×10⁻⁶ cm/s
- Papp B→A ([3]; MDCK-MDR1, Papp B-A Sample - 01, MDCK-MDR1, B-A, replicate 01): 20.1 ×10⁻⁶ cm/s
- Papp B→A ([3]; MDCK-MDR1, Papp B-A Sample - 02, MDCK-MDR1, B-A, replicate 02): 20.2 ×10⁻⁶ cm/s
- Papp A→B at 90 min, 5 µM ([4]; Papp A-B Mean, MDCK-Wild type, A-B, 5 μM, mean): 24.3 ×10⁻⁶ cm/s
- Papp A→B at 90 min, 5 µM ([4]; Papp A-B Sample - 01, MDCK-Wild type, A-B, 5 μM, replicate 01): 26.5 ×10⁻⁶ cm/s
- Papp A→B at 90 min, 5 µM ([4]; Papp A-B Sample - 02, MDCK-Wild type, A-B, 5 μM, replicate 02): 22.2 ×10⁻⁶ cm/s
- Papp B→A at 90 min, 5 µM ([4]; Papp B-A Mean, MDCK-Wild type, B-A, 5 μM, mean): 21.3 ×10⁻⁶ cm/s
- Papp B→A at 90 min, 5 µM ([4]; Papp B-A Sample - 01, MDCK-Wild type, B-A, 5 μM, replicate 01): 18.6 ×10⁻⁶ cm/s
- Papp B→A at 90 min, 5 µM ([4]; Papp B-A Sample - 02, MDCK-Wild type, B-A, 5 μM, replicate 02): 24 ×10⁻⁶ cm/s

Compound: Cc1cc2c(C(N)=O)c(N)n(-c3c(C)c(O)cc(F)c3C)c2nc1C (single isomer, unassigned) [Compound 3]
- pIC50 (recombinant protein MYT1): ≥ 6.70
- pIC50 (MIA PaCa-2 cells [1]; [5]): 5.91
- pIC50 (MIA PaCa-2 cells [2]; 72 h): < 5.00

Compound: Cc1cc2c(C(N)=O)c(N)n(-c3c(C)cc4c(c3C)NCC4)c2nc1C [Compound 150]
- pIC50 (MIA PaCa-2 cells [1]; [6]): < 6.00

Compound: Cc1cc2c(C(N)=O)c(N)n(-c3c(C)c(O)cc4c3CCC4)c2nc1C (atropisomer, axis not shown) [Compound 117]
- pIC50 (MIA PaCa-2 cells [1]; [5]): < 6.00

Compound: Cc1ccc(O)c(C)c1-n1c(N)c(C(N)=O)c2cc3c(nc21)CCN(C)C3 [Compound 96]
- pIC50 (recombinant protein MYT1): ≥ 6.70

Compound: Cc1ccc(O)c(C)c1-n1c(N)c(C(N)=O)c2cnc(C#N)cc21 [Compound 172]
- pIC50 (recombinant protein MYT1): ≥ 6.70

Compound: Cc1cc2c(C(N)=O)c(N)n(-c3c(C)c(O)cc(C(F)(F)F)c3C)c2nc1C [Compound 208]
- pIC50 (recombinant protein MYT1): ≥ 6.70

Compound: Cc1cc2c(C(N)=O)c(N)n(-c3c(C)cc4cc[nH]c4c3C)c2nc1C [Compound 153]
- pIC50 (recombinant protein MYT1): ≥ 6.70
- pIC50 (MIA PaCa-2 cells [1]; [6]): < 6.00

Compound: Cc1cc2c(C(N)=O)c(N)n(-c3c(C)cc(F)c(O)c3C)c2cc1C#N [Compound 169]
- pIC50 (recombinant protein MYT1): ≥ 6.70

Compound: Cc1c(O)cc(F)c(C)c1-n1c(N)c(C(N)=O)c2cc3c(nc21)CC=C3 [Compound 211]
- pIC50 (recombinant protein MYT1): ≥ 6.70

Compound: Cc1ccc(O)c(C)c1-n1c(N)c(C(N)=O)c2cc(C#N)c(C)nc21 [Compound 11]
- pIC50 (recombinant protein MYT1): ≥ 6.70
- pIC50 (MIA PaCa-2 cells [1]; [5]): < 6.00
- pIC50 (MIA PaCa-2 cells [2]; 72 h): < 5.00

Compound: Cc1nc2c(cc1C#N)c(C(N)=O)c(N)n2-c1c(C(F)(F)F)ccc(O)c1C [Compound 184]
- pIC50 (recombinant protein MYT1): ≥ 6.70

Compound: Cc1cc(F)c(O)c(C)c1-n1c(N)c(C(N)=O)c2cc3ccccc3nc21 [Compound 180]
- pIC50 (recombinant protein MYT1): ≥ 6.70

Compound: Cc1ccc(O)c(C)c1-n1c(N)c(C(N)=O)c2cc(C#N)c(C)nc21 [Compound 9]
- pIC50 (recombinant protein MYT1): ≥ 6.70

Compound: Cc1cc2c(C(N)=O)c(N)n(-c3c(C)c(O)cc(Cl)c3C)c2nc1C [Compound 193]
- pIC50 (recombinant protein MYT1): ≥ 6.70

Compound: Cc1ccc(O)c(C)c1-n1c(N)c(C(N)=O)c2cc3c(nc21)CCN(C)C3 (atropisomer, axis not shown) [Compound 98]
- pIC50 (recombinant protein MYT1): ≥ 6.70
- pIC50 (MIA PaCa-2 cells [1]; [5]): < 6.00
- pIC50 (MIA PaCa-2 cells [2]; 72 h): < 5.00

Compound: Cc1ccc(O)c(C)c1-n1c(N)c(C(N)=O)c2cc3c(nc21)CC=CC3 [Compound 113]
- pIC50 (recombinant protein MYT1): ≥ 6.70

Compound: C[C@H]1O[C@@H](O[C@H]2[C@@H](O)C[C@H](O[C@H]3[C@@H](O)C[C@H](O[C@H]4CC[C@@]5(C)[C@H](CC[C@@H]6[C@@H]5C[C@@H](O)[C@]5(C)[C@@H](C7=CC(=O)OC7)CC[C@]65O)C4)O[C@@H]3C)O[C@@H]2C)C[C@H](O)[C@@H]1O [Digoxin]
- efflux ratio at 90 min, 5 μM ([3]; MDCK-MDR1): 21.4
- Papp A→B at 90 min, 5 µM ([3]; MDCK-MDR1, Papp A-B Mean): 0.96 ×10⁻⁶ cm/s
- Papp A→B at 90 min, 5 µM ([3]; MDCK-MDR1, Papp A-B Sample - 01): 0.96 ×10⁻⁶ cm/s
- Papp A→B at 90 min, 5 µM ([3]; MDCK-MDR1, Papp A-B Sample - 02): 0.96 ×10⁻⁶ cm/s
- Papp B→A at 90 min, 5 µM ([3]; MDCK-MDR1, Papp B-A Mean): 20.6 ×10⁻⁶ cm/s
- Papp B→A at 90 min, 5 µM ([3]; MDCK-MDR1, Papp B-A Sample - 01): 17.7 ×10⁻⁶ cm/s
- Papp B→A at 90 min, 5 µM ([3]; MDCK-MDR1, Papp B-A Sample - 02): 23.5 ×10⁻⁶ cm/s
- efflux ratio at 90 min, 5 μM ([4]; MDCK): 2.69
- Papp A→B at 90 min, 5 µM ([4]; MDCK, Papp A-B Mean): 1.79 ×10⁻⁶ cm/s
- Papp A→B at 90 min, 5 µM ([4]; MDCK, Papp A-B Sample - 01): 1.9 ×10⁻⁶ cm/s
- Papp A→B at 90 min, 5 µM ([4]; MDCK, Papp A-B Sample - 02): 1.68 ×10⁻⁶ cm/s
- Papp B→A at 90 min, 5 µM ([4]; MDCK, Papp B-A Mean): 4.8 ×10⁻⁶ cm/s
- Papp B→A at 90 min, 5 µM ([4]; MDCK, Papp B-A Sample - 01): 4.64 ×10⁻⁶ cm/s
- Papp B→A at 90 min, 5 µM ([4]; MDCK, Papp B-A Sample - 02): 4.96 ×10⁻⁶ cm/s

The next lines start with the values.

- pIC50 (recombinant protein MYT1): ≥ 6.70
- pIC50 (MIA PaCa-2 cells [1]; [5]): < 6.00
- pIC50 (MIA PaCa-2 cells [2]; 72 h): < 5.00
Compound: Cc1cc2c(C(N)=O)c(N)n(-c3c(C)cc(F)c(O)c3C)c2nc1C (single isomer, unassigned) [Compound 7]

- pIC50 (recombinant protein MYT1): ≥ 6.70
- pIC50 (MIA PaCa-2 cells [1]; [5]): 6.78
- pIC50 (MIA PaCa-2 cells [2]; Homo sapiens, MIA PaCa-2, 72 h): < 5.00
Compound: Cc1cc2c(C(N)=O)c(N)n(-c3c(C)cc(F)c(O)c3C)c2nc1C (single isomer, unassigned) [Compound 6]

- pIC50 (recombinant protein MYT1): ≥ 6.70
- pIC50 (MIA PaCa-2 cells [1]; [5]): 7.00
- pIC50 (MIA PaCa-2 cells [2]; Homo sapiens, MIA PaCa-2, 72 h): < 5.00
Compound: Cc1ccc(O)c(C)c1-n1c(N)c(C(N)=O)c2cc3c(nc21)CCN(C)C3 [Compound 97]

- pIC50 (recombinant protein MYT1): ≥ 6.70
- pIC50 (MIA PaCa-2 cells [1]; [5]): 7.35
- pIC50 (MIA PaCa-2 cells [2]; 72 h): 5.37
Compound: Cc1ccc(O)c(C)c1-n1c(N)c(C(N)=O)c2cc(C#N)c(C)nc21 [Compound 10]

- pIC50 (recombinant protein MYT1): ≥ 6.70
- pIC50 (MIA PaCa-2 cells [1]; [5]): < 6.00
- pIC50 (MIA PaCa-2 cells [2]; 72 h): < 5.00
Compound: Cc1ccc(O)c(C)c1-n1c(N)c(C(N)=O)c2cc3c(nc21)COC3 [Compound 17]

- pIC50 (recombinant protein MYT1): ≥ 6.70
- pIC50 (MIA PaCa-2 cells [1]; [6]): 6.64
Compound: Cc1cc2c(C(N)=O)c(N)n(-c3c(C)ccc(O)c3C)c2nc1C#N [Compound 12]

- pIC50 (recombinant protein MYT1): ≥ 6.70
- pIC50 (MIA PaCa-2 cells [1]; [5]): 7.00
- pIC50 (MIA PaCa-2 cells [2]; Homo sapiens, MIA PaCa-2, 72 h): < 5.00
Compound: Cc1ccc(O)c(C)c1-n1c(N)c(C(N)=O)c2cc3c(nc21)COC3 [Compound 16]

- pIC50 (recombinant protein MYT1): ≥ 6.70
Compound: Cc1ccc(O)c(C)c1-n1c(N)c(C(N)=O)c2cc3c(nc21)C=CCC3 [Compound 114]

- pIC50 (recombinant protein MYT1): ≥ 6.70
Compound: Cc1cc2c(C(N)=O)c(N)n(-c3c(Cl)cc(F)c(O)c3C)c2nc1C [Compound 4]

- pIC50 (recombinant protein MYT1): ≥ 6.70
Compound: Cc1cc2c(C(N)=O)c(N)n(-c3c(C)c(O)cc4c3COC4)c2nc1C [Compound 124]

- pIC50 (recombinant protein MYT1): ≥ 6.70
Compound: Cc1ccc(O)c(C)c1-n1c(N)c(C(N)=O)c2cc3cccnc3nc21 [Compound 41]
